Laboratory results reported in paper PMC11882969 (Nature Communications, 2025).
“And” between values parts separate entries of the source, which are not always exact repeats. Equal entries are not always repeated. Where two headings read alike, the source gives them in different places. Marks after values point to notes of the source that are not given here.

Tests used:
CB1 (rCB1) [1] = molecular target: T1, CB1 (rCB1) (Rattus norvegicus, UniProt P20272); assay: Single-point radioligand displacement screen; type: binding
T1 sequence (P20272 whole entry): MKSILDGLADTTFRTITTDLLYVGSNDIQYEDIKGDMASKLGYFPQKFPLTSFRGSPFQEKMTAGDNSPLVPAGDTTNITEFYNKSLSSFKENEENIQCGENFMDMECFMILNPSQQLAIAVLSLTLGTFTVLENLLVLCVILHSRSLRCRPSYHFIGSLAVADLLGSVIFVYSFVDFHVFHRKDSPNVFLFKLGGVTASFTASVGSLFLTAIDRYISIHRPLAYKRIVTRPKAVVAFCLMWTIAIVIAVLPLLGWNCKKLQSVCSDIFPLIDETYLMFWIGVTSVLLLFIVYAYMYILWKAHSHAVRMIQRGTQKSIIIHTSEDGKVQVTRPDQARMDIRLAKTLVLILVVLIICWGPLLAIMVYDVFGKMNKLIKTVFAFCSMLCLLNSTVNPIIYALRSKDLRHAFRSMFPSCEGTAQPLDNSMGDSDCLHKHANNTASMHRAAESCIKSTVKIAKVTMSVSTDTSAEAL

hCB1 [2] = molecular target: T2, hCB1 (Homo sapiens, UniProt P21554); assay: Lance Ultra cAMP accumulation assay, CHO cells; type: cell-based; set-up: expressed in transfected cells; settings: for cAMP assay signal, concentration-response point: replicates, sheet FigureS2a;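 as to all read-outs here: human CB1R stably expressed in CHO cells, ligands co-incubated with forskolin at room temperature, read-out is lowering of forskolin-stimulated cAMP accumulation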
T2 sequence (P21554 whole entry): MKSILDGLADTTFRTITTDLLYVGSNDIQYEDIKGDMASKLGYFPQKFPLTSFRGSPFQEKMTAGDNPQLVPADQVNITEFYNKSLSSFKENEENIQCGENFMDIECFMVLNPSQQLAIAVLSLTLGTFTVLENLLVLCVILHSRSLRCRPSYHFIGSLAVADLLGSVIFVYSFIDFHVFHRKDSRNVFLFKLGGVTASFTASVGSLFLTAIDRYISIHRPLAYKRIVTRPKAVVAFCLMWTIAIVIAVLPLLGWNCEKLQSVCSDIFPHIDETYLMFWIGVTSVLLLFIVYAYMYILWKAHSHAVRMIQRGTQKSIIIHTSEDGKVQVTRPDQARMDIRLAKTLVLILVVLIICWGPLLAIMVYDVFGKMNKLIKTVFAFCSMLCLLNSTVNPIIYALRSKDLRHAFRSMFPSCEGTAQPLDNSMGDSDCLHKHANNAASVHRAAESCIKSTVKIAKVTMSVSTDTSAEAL

hCB1 [3] = molecular target: T2, hCB1; assay: bioSensAll ebBRET signaling profiling, hCB1; type: cell-based; set-up: host or cells: HEK293SL cells, transient PEI transfection; settings: for Barr2+GRK2 hCB1 response: Barr2+GRK2 biosensor; for Gi1 hCB1 / GoB hCB1: single replicate values, FigS6a; for Emax: normalized to CP-55,940
CB1 (rCB1) [4] = molecular target: T1, CB1 (rCB1); assay: Radioligand competition binding, [3H]-CP-55,940, rat brain membranes

Cn1nc(-c2nnc(C(C)(C)Oc3ccc(Cl)cc3)o2)c2ccccc2c1=O [‘0450]
% 1H-CP-55,940 displacement (mean) from single point screen (CB1 (rCB1) [1]; 10 µM, 1 µM or 300 nM by cell colour (not visible)): 80.28% | rep1_displacement (CB1 (rCB1) [1]; Figure 1c source data, replicate 1): 80.6 | rep2_displacement (CB1 (rCB1) [1]; Figure 1c source data, replicate 2): 81.2 | rep3_displacement (CB1 (rCB1) [1]; Figure 1c source data, replicate 3): 79 | cAMP assay signal, concentration-response point (hCB1 [2]; compound 0.01 nM): 0.002801 and 0.002457 and 0.003311 | cAMP assay signal, concentration-response point (hCB1 [2]; compound 0.1 nM): 0.004608* and 0.002375 and 0.002849 | cAMP assay signal, concentration-response point (hCB1 [2]; compound 1 nM): 0.002336 and 0.002132 and 0.002532 | cAMP assay signal, concentration-response point (hCB1 [2]; compound 10 nM): 0.002645 and 0.002538 and 0.002288 | cAMP assay signal, concentration-response point (hCB1 [2]; compound 100 nM): 0.002008 and 0.002532 and 0.002421 | cAMP assay signal, concentration-response point (hCB1 [2]; compound 1000 nM): 0.002545 and 0.002096 and 0.002506 | cAMP assay signal, concentration-response point (hCB1 [2]; compound 10000 nM): 0.001462 and 0.001302 and 0.001515 | cAMP assay signal, concentration-response point (hCB1 [2]; compound 100000 nM): 0.0002057* and 0.0001994* and 0.0002162* | agonism, inhibition of forskolin-stimulated cAMP (hCB1 [2]; hCB1-expressing cells, in words): modest agonism | Barr2+GRK2 hCB1 response (hCB1 [3]; Log [Compound] (M) -4.22186): 27.1048 | Barr2+GRK2 hCB1 response (hCB1 [3]; Log [Compound] (M) -4.63927): -24.5851 | Barr2+GRK2 hCB1 response (hCB1 [3]; Log [Compound] (M) -5.05788): -35.4335 | Barr2+GRK2 hCB1 response (hCB1 [3]; Log [Compound] (M) -5.47381): -53.9398 | Barr2+GRK2 hCB1 response (hCB1 [3]; Log [Compound] (M) -5.89285): -49.1537 | Barr2+GRK2 hCB1 response (hCB1 [3]; Log [Compound] (M) -6.31878): -46.282 | Barr2+GRK2 hCB1 response (hCB1 [3]; Log [Compound] (M) -6.72585): -46.9202 | Barr2+GRK2 hCB1 response (hCB1 [3]; Log [Compound] (M) -7.14267): -54.5779 | Barr2+GRK2 hCB1 response (hCB1 [3]; Log [Compound] (M) -7.55284): -56.4924 | Barr2+GRK2 hCB1 response (hCB1 [3]; Log [Compound] (M) -8): -48.8346 | Barr2+GRK2 hCB1 response (hCB1 [3]; Log [Compound] (M) -8.22186): -5.441 | Barr2+GRK2 hCB1 response (hCB1 [3]; Log [Compound] (M) -8.39794): -31.2856 | Barr2+GRK2 hCB1 response (hCB1 [3]; Log [Compound] (M) -8.68787): -55.2161 | Barr2+GRK2 hCB1 response (hCB1 [3]; Log [Compound] (M) -9.15521): -35.1145 | Barr2+GRK2 hCB1 response (hCB1 [3]; Log [Compound] (M) -9.61989): -47.5583 | Barr2+GRK2 hCB1 response (hCB1 [3]; Log [Compound] (M) -10.0969): -52.0253 | Barr2+GRK2 hCB1 response (hCB1 [3]; Log [Compound] (M) -10.5529): -34.4763 | Barr2+GRK2 hCB1 response (hCB1 [3]; Log [Compound] (M) -11.0177): -42.1341 | Barr2+GRK2 hCB1 response (hCB1 [3]; Log [Compound] (M) -11.4949): -48.5155 | Barr2+GRK2 hCB1 response (hCB1 [3]; Log [Compound] (M) -11.9208): -49.1537 | Barr2+GRK2 hCB1 response (hCB1 [3]; Log [Compound] (M) -12.3979): -55.5351 | Barr2+GRK2 hCB1 response (hCB1 [3]; Log [Compound] (M) -12.8861): -37.0289 | Barr2+GRK2 hCB1 response (hCB1 [3]; Log [Compound] (M) -13.3979): -10.8649 | Gi1 hCB1 (hCB1 [3]; Log [Compound] (M) -4.22186): 20.433 | GoB hCB1 (hCB1 [3]; Log [Compound] (M) -4.22186): 28.3973 | Gi1 hCB1 (hCB1 [3]; Log [Compound] (M) -4.63927): 13.3222 | GoB hCB1 (hCB1 [3]; Log [Compound] (M) -4.63927): 13.6053 | Gi1 hCB1 (hCB1 [3]; Log [Compound] (M) -5.05788): 9.41 | GoB hCB1 (hCB1 [3]; Log [Compound] (M) -5.05788): 19.1089 | Gi1 hCB1 (hCB1 [3]; Log [Compound] (M) -5.47381): 7.763 | GoB hCB1 (hCB1 [3]; Log [Compound] (M) -5.47381): 13.8657 | Gi1 hCB1 (hCB1 [3]; Log [Compound] (M) -5.89285): 5.34 | GoB hCB1 (hCB1 [3]; Log [Compound] (M) -5.89285): 8.258 | Gi1 hCB1 (hCB1 [3]; Log [Compound] (M) -6.31878): 2.791 | GoB hCB1 (hCB1 [3]; Log [Compound] (M) -6.31878): 3.397 | Gi1 hCB1 (hCB1 [3]; Log [Compound] (M) -6.72585): -1.469 | GoB hCB1 (hCB1 [3]; Log [Compound] (M) -6.72585): -0.5617 | Gi1 hCB1 (hCB1 [3]; Log [Compound] (M) -7.14267): -3.893 | GoB hCB1 (hCB1 [3]; Log [Compound] (M) -7.14267): -2.489 | Gi1 hCB1 (hCB1 [3]; Log [Compound] (M) -7.55284): -6.6323 | GoB hCB1 (hCB1 [3]; Log [Compound] (M) -7.55284): -6.586 | Gi1 hCB1 (hCB1 [3]; Log [Compound] (M) -8): -3.861 | GoB hCB1 (hCB1 [3]; Log [Compound] (M) -8): -8.513 | Gi1 hCB1 (hCB1 [3]; Log [Compound] (M) -8.22186): 0.6527 | GoB hCB1 (hCB1 [3]; Log [Compound] (M) -8.22186): -4.433 | Gi1 hCB1 (hCB1 [3]; Log [Compound] (M) -8.39794): -6.221 | GoB hCB1 (hCB1 [3]; Log [Compound] (M) -8.39794): -7.35 | Gi1 hCB1 (hCB1 [3]; Log [Compound] (M) -8.68787): -4.3993 | GoB hCB1 (hCB1 [3]; Log [Compound] (M) -8.68787): -5.892 | Gi1 hCB1 (hCB1 [3]; Log [Compound] (M) -9.15521): -5.159 | GoB hCB1 (hCB1 [3]; Log [Compound] (M) -9.15521): -7.419 | Gi1 hCB1 (hCB1 [3]; Log [Compound] (M) -9.61989): -4.621 | GoB hCB1 (hCB1 [3]; Log [Compound] (M) -9.61989): -5.371 | Gi1 hCB1 (hCB1 [3]; Log [Compound] (M) -10.0969): -6.442 | GoB hCB1 (hCB1 [3]; Log [Compound] (M) -10.0969): -8.097 | GoB hCB1 (hCB1 [3]; Log [Compound] (M) -10.5529): -7.003 | Gi1 hCB1 (hCB1 [3]; Log [Compound] (M) -11.0177): -5.524 | GoB hCB1 (hCB1 [3]; Log [Compound] (M) -11.0177): -9.104 | Gi1 hCB1 (hCB1 [3]; Log [Compound] (M) -11.4949): -5.872 | GoB hCB1 (hCB1 [3]; Log [Compound] (M) -11.4949): -8.479 | Gi1 hCB1 (hCB1 [3]; Log [Compound] (M) -11.9208): -6.363 | GoB hCB1 (hCB1 [3]; Log [Compound] (M) -11.9208): -7.454 | Gi1 hCB1 (hCB1 [3]; Log [Compound] (M) -12.3979): -5.935 | GoB hCB1 (hCB1 [3]; Log [Compound] (M) -12.3979): -8.392 | Gi1 hCB1 (hCB1 [3]; Log [Compound] (M) -12.8861): -4.653 | GoB hCB1 (hCB1 [3]; Log [Compound] (M) -12.8861): -8.739 | Gi1 hCB1 (hCB1 [3]; Log [Compound] (M) -13): -5.191 | GoB hCB1 (hCB1 [3]; Log [Compound] (M) -13): -7.871 | Gi1 hCB1 (hCB1 [3]; Log [Compound] (M) cell empty): -4.795 | GoB hCB1 (hCB1 [3]; Log [Compound] (M) cell empty): -4.173 | pEC50 [95% CI] (hCB1 [3]; hCB1 GoB): 5.6 [3.0 – 6.2] | Emax (hCB1 [3]; read-out: Emax [95% CI], hCB1 Gi1): 49% | Emax (hCB1 [3]; read-out: Emax [95% CI], hCB1 GoB): 36% | radioligand binding remaining, competition curve (Figure2e), replicate values (CB1 (rCB1) [4]; log[drug] -3.643): 3.776 and 13.0342 and 10.5924 | radioligand binding remaining, competition curve (Figure2e), replicate values (CB1 (rCB1) [4]; log[drug] -4.35655): -5.187 and 0.4808 and -3.246 | radioligand binding remaining, competition curve (Figure2e), replicate values (CB1 (rCB1) [4]; log[drug] -5.07): 1.22 and 4.986 and -3.564 | radioligand binding remaining, competition curve (Figure2e), replicate values (CB1 (rCB1) [4]; log[drug] -5.783): 44.8894 and 48.8782 and 38.7216 | radioligand binding remaining, competition curve (Figure2e), replicate values (CB1 (rCB1) [4]; log[drug] -6.496): 82.7231 and 84.8647 and 75.4685 | radioligand binding remaining, competition curve (Figure2e), replicate values (CB1 (rCB1) [4]; log[drug] -7.21): 103.471 and 87.6068 and 85.0402 | radioligand binding remaining, competition curve (Figure2e), replicate values (CB1 (rCB1) [4]; log[drug] -7.923): 98.6842 and 84.2236 and 81.6265 | radioligand binding remaining, competition curve (Figure2e), replicate values (CB1 (rCB1) [4]; log[drug] -8.636): 102.059 and 98.0413 and 100.669 | pKi [95% CI] (CB1 (rCB1) [4]; rCB1): 6.16 [5.99 – 6.34]
